Earlier results in patent US12508224B2, “Treating microvascular dysfunction” (EndoProtech, Inc., priority 2018, dated 2025).

System: glycocalyx

CCCCCCCCCCCCC/C=C/[C@@H](O)[C@@H](N)COP(=O)(O)O [SP, sphingosine-1-phosphate]
levels needed in plasma to protect the stability of the glycocalyx: 100 to 300 nM
